Assays:
[1] = tested on: A549-ACE2 infected with SARS-CoV-2; test: cell count relative to DMSO; higher = less toxic; conditions: 24 h
Caco-2 [2] = test: cell viability relative to DMSO; higher = less toxic; conditions: 72 h
Calu-3 [3] = test: as above; conditions: 72 h
HepG2 [4] = test: as above; conditions: 72 h
U2OS [5] = test: as above; conditions: 72 h
Vero E6 [6] = test: as above; conditions: 72 h
[7] = tested on: A549-ACE2 infected with SARS-CoV-2; test: SARS-CoV-2 infection rate relative to DMSO; higher = more infection; conditions: 24 h
A549-ACE2 = test: drug-induced phospholipidosis relative to tamoxifen; higher = more phospholipidosis
[8] = tested on: A549-ACE2 infected with SARS-CoV-2; test: morphology score (similarity to uninfected cells); higher = more like uninfected cells; conditions: 24 h
Caco-2 [9] = test: relative viability EC50 (midpoint between 100% and the lowest measured viability); higher = less toxic; conditions: 72 h
Calu-3 [10] = test: as above; conditions: 72 h
Caco-2 [11] = test: drug sensitivity score (DSS) for viability; higher = more toxic; extreme values may be limits of the assay; conditions: 72 h
Calu-3 [12] = test: as above; conditions: 72 h
HepG2 [13] = test: as above; conditions: 72 h
U2OS [14] = test: as above; conditions: 72 h
Vero E6 [15] = test: as above; conditions: 72 h
HepG2 [16] = test: relative viability EC50 (midpoint between 100% and the lowest measured viability); higher = less toxic; conditions: 72 h
U2OS [17] = test: as above; conditions: 72 h
Vero E6 [18] = test: as above; conditions: 72 h

CCn1c(-c2nonc2N)nc2cncc(C(=O)N3CC[C@H](N)C3)c21
Conditions | SARS-CoV-2 infection rate, [7] [%] | cell count, [1] [%] | cell viability, Caco-2 [2] [%] | cell viability, Calu-3 [3] [%] | cell viability, HepG2 [4] [%] | cell viability, U2OS [5] [%] | cell viability, Vero E6 [6] [%] | morphology score, [8]
1 nM | – | – | 98.7 | 104 | 99.3 | 103 | 107 | –
10 nM | – | – | 99.1 | 94 | 108 | 99.1 | 106 | –
0.1 µM | 103 | 104 | – | – | – | – | – | 0.19
100 nM | – | – | 98.1 | 107 | 95.9 | 101 | 95.3 | –
0.3 µM | 105 | 110 | – | – | – | – | – | 0.18
1 µM | 109 | 91 | – | – | – | – | – | -0.07
1000 nM | – | – | 93.5 | 127 | 88.2 | 88.2 | 84.6 | –
3 µM | 105 | 73 | – | – | – | – | – | -0.12
10000 nM | – | – | 84.2 | 124 | 71.8 | 60.5 | 52.2 | –

drug-induced phospholipidosis [%], A549-ACE2
Conditions | 0.3 µM | 0.833333 µM | 3.33333 µM | 6.66667 µM | 10 µM | 30 µM
24 h | 0.14 | 1.05 | -2.9 | -4.65 | -1.66 | 4.03
48 h | 0.57 | 0.37 | -3.24 | -3.77 | -1.92 | 7.82
72 h | 0.439 | -0.392 | -3.22 | -2.1 | – | –

Conditions | drug sensitivity score | relative viability EC50 [µM]
Caco-2 [9] | – | > 10
Caco-2 [11] | 0.5 | –
Calu-3 [10] | – | > 10
Calu-3 [12] | 0 | –
HepG2 [13] | 2.2 | –
U2OS [14] | 3.7 | –
Vero E6 [15] | 4.4 | –

Cn1c(=O)n(-c2ccc(C(C)(C)C#N)cc2)c2c3cc(-c4cnc5ccccc5c4)ccc3ncc21 [NVP-BEZ235]
cell viability [%]
Conditions | Caco-2 [2] | Calu-3 [3] | HepG2 [4] | U2OS [5] | Vero E6 [6]
1 nM | 98.6 | 95.4 | 99.7 | 101 | 98.4
10 nM | 102 | 98.5 | 110 | 99.9 | 102
100 nM | 85.2 | 77.2 | 98.4 | 98.9 | 93.9
1000 nM | 40.1 | 40.6 | 71.8 | 37.9 | 57.5
10000 nM | 40.3 | 28.7 | 30.1 | 20.7 | 38.1

Conditions | drug sensitivity score | relative viability EC50 [µM]
Caco-2 [9] | – | 0.156
Caco-2 [11] | 13.4 | –
Calu-3 [10] | – | 0.209
Calu-3 [12] | 13.7 | –
HepG2 [13] | 7.5 | –
HepG2 [16] | – | 1.19
U2OS [14] | 11.7 | –
U2OS [17] | – | 0.585
Vero E6 [15] | 8.8 | –
Vero E6 [18] | – | 0.552

CNc1ccc([N+](=O)[O-])cc1-n1cnc(-c2ccc(C(F)(F)F)cc2)c1 [CU-T12-9]
cell viability [%]
Conditions | Caco-2 [2] | Calu-3 [3] | HepG2 [4] | U2OS [5] | Vero E6 [6]
1 nM | 95.4 | 104 | 108 | 103 | 103
10 nM | 105 | 90.9 | 104 | 103 | 96.4
100 nM | 96.8 | 93.8 | 93.8 | 96.2 | 100
1000 nM | 101 | 94.9 | 95.4 | 98.2 | 101
10000 nM | 101 | 94.9 | 91.3 | 100 | 102

Conditions | drug sensitivity score | relative viability EC50 [µM]
Caco-2 [9] | – | > 10
Caco-2 [11] | 0 | –
Calu-3 [10] | – | > 10
Calu-3 [12] | 0 | –
HepG2 [13] | 0 | –
HepG2 [16] | – | > 10
U2OS [14] | 0 | –
U2OS [17] | – | > 10
Vero E6 [15] | 0 | –
Vero E6 [18] | – | > 10

CCCCCCCCCCCCCCCCCCCCCC(=O)Nc1ccn([C@@H]2O[C@H](CO)[C@@H](O)[C@@H]2O)c(=O)n1 [enocitabine]
cell viability [%]
Conditions | Caco-2 [2] | Calu-3 [3] | HepG2 [4] | U2OS [5] | Vero E6 [6]
1 nM | 78.8 | 99.2 | 98 | 94.1 | 95.6
10 nM | 67.8 | 99 | 102 | 95.2 | 97.2
100 nM | 90.5 | 104 | 100 | 95.4 | 91.9
1000 nM | 114 | 94.9 | 112 | 93.6 | 94
10000 nM | 92.3 | 95.7 | 79.2 | 102 | 107

Conditions | drug sensitivity score | relative viability EC50 [µM]
Caco-2 [9] | – | > 10
Caco-2 [11] | 0 | –
Calu-3 [10] | – | > 10
Calu-3 [12] | 0 | –
HepG2 [13] | 0.4 | –
HepG2 [16] | – | > 10
U2OS [14] | 0 | –
U2OS [17] | – | > 10
Vero E6 [15] | 0 | –
Vero E6 [18] | – | > 10

Cc1cccc(-c2[nH]c(CNc3ccccc3F)nc2-c2ccc3ncnn3c2)n1 [EW-7197]
cell viability [%]
Conditions | Caco-2 [2] | Calu-3 [3] | HepG2 [4] | U2OS [5] | Vero E6 [6]
1 nM | 95.7 | 97.3 | 95.1 | 99.1 | 102
10 nM | 96.4 | 88.4 | 104 | 99.4 | 105
100 nM | 94.1 | 96.9 | 106 | 94.4 | 102
1000 nM | 109 | 114 | 103 | 95.5 | 95.4
10000 nM | 99.4 | 105 | 93.3 | 85.5 | 98.7

Conditions | drug sensitivity score | relative viability EC50 [µM]
Caco-2 [9] | – | > 10
Caco-2 [11] | 0 | –
Calu-3 [10] | – | > 10
Calu-3 [12] | 0 | –
HepG2 [13] | 0 | –
HepG2 [16] | – | > 10
U2OS [14] | 0.1 | –
U2OS [17] | – | > 10
Vero E6 [15] | 0 | –
Vero E6 [18] | – | > 10

From the supplement of paper PMC13380429
